Data reported in PubChem BioAssay (NCI).
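Compound exposure: 48 hours, 5 concentrations, 96-well plates. TGI marks complete inhibition of growth.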

Key:
Assay in all cases: inhibition of tumour cell growth, NCI panel, 48 h
[1] = tested on: OVCAR-5 ovarian
[2] = tested on: DU-145 prostate
[3] = tested on: SF-295 CNS
[4] = tested on: ACHN renal
[5] = tested on: HS 578T breast
[6] = tested on: UO-31 renal
[7] = tested on: NCI-H226 lung
[8] = tested on: LOX IMVI melanoma
[9] = tested on: MDA-MB-435
[10] = tested on: SN12C renal

| Structure (SMILES) | TGI [1] [µM] | TGI [2] [µM] | TGI [3] [µM] | TGI [4] [µM] | TGI [5] [µM] | TGI [6] [µM] | TGI [7] [µM] | TGI [8] [µM] | TGI [9] [µM] | TGI [10] [µM] |
| --- | --- | --- | --- | --- | --- | --- | --- | --- | --- | --- |
| O=C(NC(=O)c1cc(-c2ccccc2)n[nH]1)c1ccccc1 | > 100 | > 100 | > 100 | > 100 | > 100 | > 100 | > 100 | > 100 | > 100 | > 100 |
| O=C(Nc1cccc([N+](=O)[O-])c1)c1n[nH]n(-c2cccc([N+](=O)[O-])c2)c1=O | > 100 | > 100 | > 100 | > 100 | > 100 | > 100 | > 100 | > 100 | > 100 | > 100 |
| CC1CC/C(=C\c2ccc(F)cc2)C(=O)/C1=C/c1ccc(F)cc1 (stereo not given) | 25.4 | 17.1 | 7.38 | 13.6 | 31.4 | 23.6 | 24.1 | 7 | 28.4 | 9.9 |
| COC1=CC(=O)CC(C)C12Oc1c(Cl)c(OC)cc(OC)c1C2=O (stereo not given) | > 100 | > 100 | 57.3 | > 100 | > 80 | > 88.1 | > 100 | > 100 | 6.42 | > 100 |
| CCCCCCCCCCCC[C@@H](O)[C@H]1CCC([C@H](O)CCCCC(=O)CCCCCCCC2=C[C@H](C)OC2=O)O1 (stereo not given in full) | > 50 | > 50 | > 50 | > 50 | > 32.8 | > 50 | > 50 | > 50 | > 50 | > 50 |
| CN(C)c1ccc(/C=C(\NC(=O)c2ccccc2)C2=NC(CCC(=O)O)C(=O)O2)cc1 (stereo not given) | > 50 | > 50 | > 50 | > 50 | > 50 | > 50 | > 50 | > 50 | > 50 | > 50 |
| CC(C)(C)OC(=O)CN1CCNCCN(CC(=O)OC(C)(C)C)CCNCC1 | > 100 | > 100 | > 100 | > 100 | > 100 | > 100 | > 100 | > 100 | > 100 | > 100 |
| C=C1C(O)C[C@H](OC(C)=O)[C@]2(C)C1C(OC(C)=O)[C@]1(C(C)(C)O)CC(O)C(C)=C1[C@@H](OC(=O)c1ccccc1)C2OC(C)=O (stereo not given in full) | > 10 | > 10 | > 10 | > 10 | > 10 | > 10 | > 10 | > 10 | > 10 | > 10 |
| NCC(O)CNC(=O)c1ccc(-c2ccc(-c3ccc(C(=O)NCC(O)CN)cc3)o2)cc1 (stereo not given) | > 100 | 50.6 | 56.6 | > 100 | 59.7 | > 100 | 55.4 | > 100 | > 100 | 68.9 |
| Cc1ccc(C(=O)Nc2ccc(CP(=O)(O)O)cc2CP(=O)(O)O)cc1NC(=O)Nc1cc(C(=O)Nc2ccc(CP(=O)(O)O)cc2CP(=O)(O)O)ccc1C | > 100 | > 100 | > 100 | > 100 | > 100 | > 100 | > 100 | > 100 | > 100 | > 100 |
| O=C(CCC=C(S(=O)(=O)c1ccccc1)S(=O)(=O)c1ccccc1)c1ccccc1 | 24 | 25.4 | 60.9 | 20 | 31 | 18.3 | 37.3 | 10.3 | 24.3 | 13.1 |
